Columns and labels:
Conditions in all cases: 72 h
Caco-2 [1] = assay: relative viability EC50 (midpoint between 100% and the lowest measured viability); higher = less toxic
HepG2 [2] = assay: as above
Calu-3 [3] = assay: as above
U2OS [4] = assay: as above
Vero E6 [5] = assay: as above
Caco-2 [6] = assay: drug sensitivity score (DSS) for viability; higher = more toxic; extreme values may be limits of the assay
HepG2 [7] = assay: as above
Calu-3 [8] = assay: as above
U2OS [9] = assay: as above
Vero E6 [10] = assay: as above
Caco-2 [11] = assay: cell viability relative to DMSO; higher = less toxic
HepG2 [12] = assay: as above
Calu-3 [13] = assay: as above
U2OS [14] = assay: as above
Vero E6 [15] = assay: as above

Row | SMILES | relative viability EC50 (Caco-2 [1]) | relative viability EC50 (HepG2 [2]) | relative viability EC50 (Calu-3 [3]) | relative viability EC50 (U2OS [4]) | relative viability EC50 (Vero E6 [5]) | drug sensitivity score (Caco-2 [6]) | drug sensitivity score (HepG2 [7]) | drug sensitivity score (Calu-3 [8]) | drug sensitivity score (U2OS [9]) | drug sensitivity score (Vero E6 [10]) | cell viability (Caco-2 [11]; 1 nM) | cell viability (Caco-2 [11]; 10 nM) | cell viability (Caco-2 [11]; 100 nM) | cell viability (Caco-2 [11]; 1000 nM) | cell viability (Caco-2 [11]; 10000 nM) | cell viability (HepG2 [12]; 1 nM) | cell viability (HepG2 [12]; 10 nM) | cell viability (HepG2 [12]; 100 nM) | cell viability (HepG2 [12]; 1000 nM) | cell viability (HepG2 [12]; 10000 nM) | cell viability (Calu-3 [13]; 1 nM) | cell viability (Calu-3 [13]; 10 nM) | cell viability (Calu-3 [13]; 100 nM) | cell viability (Calu-3 [13]; 1000 nM) | cell viability (Calu-3 [13]; 10000 nM) | cell viability (U2OS [14]; 1 nM) | cell viability (U2OS [14]; 10 nM) | cell viability (U2OS [14]; 100 nM) | cell viability (U2OS [14]; 1000 nM) | cell viability (U2OS [14]; 10000 nM) | cell viability (Vero E6 [15]; 1 nM) | cell viability (Vero E6 [15]; 10 nM) | cell viability (Vero E6 [15]; 100 nM) | cell viability (Vero E6 [15]; 1000 nM) | cell viability (Vero E6 [15]; 10000 nM)
1 | O=C(NC1CCC1)c1ccc(C#Cc2cccc(F)c2)nc1 | > 10 µM | > 10 µM | > 10 µM | > 10 µM | > 10 µM | 0 | 0 | 0 | 0 | 0 | 92.4% | 102% | 96.5% | 98.9% | 95.4% | 91.7% | 93.9% | 89.4% | 85.8% | 93% | 96.1% | 98.6% | 98.8% | 103% | 90.7% | 104% | 102% | 96.3% | 100% | 91.6% | 98.6% | 98.5% | 96.8% | 90% | 92.1%
2 | O=C(Oc1ccc(Br)cc1)N1CCN2CCC1CC2 | > 10 µM | > 10 µM | > 10 µM | > 10 µM | > 10 µM | 0 | 0 | 0 | 0 | 0 | 101% | 105% | 94.2% | 98% | 102% | 97.7% | 101% | 97% | 103% | 108% | 97.5% | 101% | 101% | 100% | 95.7% | 99% | 102% | 104% | 99% | 98.4% | 94.2% | 101% | 93.5% | 95.5% | 104%
3 | O=C1CC2(CCCC2)CC(=O)N1CCNC[C@H]1COc2ccccc2O1 | > 10 µM | > 10 µM | > 10 µM | > 10 µM | > 10 µM | 0 | 0 | 0 | 0 | 0 | 95.4% | 89% | 99.9% | 98.5% | 101% | 108% | 108% | 93.2% | 110% | 98.3% | 92.5% | 107% | 98.4% | 107% | 96.3% | 103% | 97% | 97.2% | 96.3% | 101% | 99.4% | 101% | 106% | 92.6% | 97.8%
4 | O=c1[nH]c2cc(C(F)(F)F)c(N3CCOCC3)cc2n(CP(=O)(O)O)c1=O | > 10 µM | > 10 µM | > 10 µM | > 10 µM | > 10 µM | 0 | 0 | 0 | 0 | 0 | 102% | 92.8% | 98.5% | 106% | 93.9% | 95.4% | 104% | 107% | 90.5% | 99.1% | 108% | 106% | 98% | 99.7% | 109% | 97.3% | 102% | 103% | 104% | 99.7% | 105% | 99.8% | 99.6% | 102% | 101%
5 | Cc1nnc(C(C)C)n1C1C[C@H]2CC[C@@H](C1)N2CC[C@H](NC(=O)C1CCC(F)(F)CC1)c1ccccc1 (stereo in doubt) [maraviroc] | > 10 µM | > 10 µM | > 10 µM | > 10 µM | > 10 µM | 0 | 0 | 0 | 0 | 0 | 101% | 93.8% | 99.5% | 97.9% | 108% | 114% | 97.3% | 94.4% | 86.5% | 101% | 107% | 89.8% | 101% | 108% | 114% | 99.4% | 95.1% | 100% | 99.7% | 106% | 97.4% | 97.8% | 97.1% | 92.3% | 104%
6 | CCn1c(=O)[nH]c2ccccc21 [1-EBIO] | > 10 µM | > 10 µM | > 10 µM | > 10 µM | > 10 µM | 0 | 0 | 0.3 | 0 | 0 | 94.4% | 93.5% | 98% | 100% | 91% | 96.7% | 98.6% | 91.4% | 84% | 110% | 99.1% | 105% | 104% | 106% | 81.8% | 95.7% | 94.3% | 104% | 98.4% | 93.2% | 97.4% | 97.5% | 89.7% | 98.2% | 104%
7 | c1ccc2oc(C3=NCCN3)cc2c1 [2-BFI] | > 10 µM | > 10 µM | > 10 µM | > 10 µM | > 10 µM | 0 | 0 | 0 | 0 | 0 | 102% | 96.2% | 97.7% | 93.6% | 112% | 97.9% | 98.3% | 87.5% | 98% | 100% | 95.9% | 99.7% | 102% | 100% | 95.7% | 100% | 96.7% | 99.7% | 99.9% | 97.7% | 93.8% | 100% | 90.5% | 94.4% | 107%

— the supplement of paper PMC13380429
